Experimental findings from US10829517B2, “Method for treating or/and preventing calcium deficiency-related diseases” (National Chung Hsing University, priority 2017, dated 2020) are described below.

In data set [1] the target is T1, calcium ion channel V6 (Homo sapiens, UniProt Q9H1D0).
T1 construct: endogenous in cells; host or cells: Caco-2
T1 sequence (Q9H1D0 1-765): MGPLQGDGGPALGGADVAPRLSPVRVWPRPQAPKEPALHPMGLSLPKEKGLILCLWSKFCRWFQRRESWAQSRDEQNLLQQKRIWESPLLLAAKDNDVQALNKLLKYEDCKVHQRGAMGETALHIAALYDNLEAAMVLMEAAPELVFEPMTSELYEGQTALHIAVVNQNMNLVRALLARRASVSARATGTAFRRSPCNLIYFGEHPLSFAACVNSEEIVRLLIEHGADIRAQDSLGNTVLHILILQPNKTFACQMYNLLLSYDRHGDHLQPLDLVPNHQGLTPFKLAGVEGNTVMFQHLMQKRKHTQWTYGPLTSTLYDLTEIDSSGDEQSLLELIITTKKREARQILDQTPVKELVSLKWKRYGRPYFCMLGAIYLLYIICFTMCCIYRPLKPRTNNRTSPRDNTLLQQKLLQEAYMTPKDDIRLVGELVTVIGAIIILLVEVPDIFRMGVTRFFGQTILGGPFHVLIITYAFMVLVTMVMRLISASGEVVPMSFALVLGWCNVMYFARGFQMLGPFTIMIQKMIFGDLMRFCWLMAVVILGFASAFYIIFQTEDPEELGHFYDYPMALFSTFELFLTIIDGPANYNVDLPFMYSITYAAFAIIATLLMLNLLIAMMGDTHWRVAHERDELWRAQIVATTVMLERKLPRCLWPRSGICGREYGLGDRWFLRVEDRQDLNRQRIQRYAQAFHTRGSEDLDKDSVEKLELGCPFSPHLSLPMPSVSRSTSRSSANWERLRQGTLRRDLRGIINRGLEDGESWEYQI
Nature of the data set: Caco-2 calcium uptake with calcium ion channel V6 inhibitor ruthenium red. The class given is cell-based. The following applies: 6 mM calcium ions, 400 μM peptide of SEQ ID No. 1. The procedure: The steps were the same as those described in Example 5, except that the calcium ion channel V6 inhibitor: ruthenium red (RUR) was administered at the 154th second.

For data set [2], the system named is Caco-2 cells. Nature of the data set: Calcium uptake in Fluo-3-AM loaded Caco-2 cells (fluorescence intensity). The class given is cell-based, human. The method, then:
The Caco-2 cell monolayer was cultured in a 10 cm2 culture dish containing DEME medium, and the cells were separated by TrypLE (Invitrogen, Carlsbad, Calif.) and washed several times with a phosphate-free KRH (Krebs Ringer Heps) solution. 5 μL of 1 mM Fluo-3-AM dye and 20% (w/v) thermally reversible hydrogel (Pluronic F-127, RF127) solution were added at 37° C. for about 30 minutes to obtain a Caco-2 cell suspension.
The Caco-2 cell suspension containing Fluo-3-AM dye was thoroughly rinsed in phosphate-free KRH solution and aliquoted, each aliquot containing 5×10^7 cells. After each aliquot was pelletized, the cells were resuspended in 240 μL of the phosphate-free KRH solution, and then transferred to a 96-well plate for use.

Where [3] appears, read: 400 μM peptide, 6 mM calcium ions, compared with 400 μM CPP group and no-peptide group.

Ends that are not written are not given here.

Take `N.N.N.N.N.N.N.N.N.N.N.N.N.N.[Cl-].[Cl-].[Cl-].[Cl-].[Cl-].[Cl-].[O-2].[O-2].[Ru+3].[Ru+3].[Ru+4]` [ruthenium red]: the “percentage decrease of peak calcium ion (peak [Ca2+]) compared to the first group” value came out at 41.9% in data set [1] (ruthenium red 10 μM (second group) vs 0 μM), 57.3% in data set [1] (ruthenium red 20 μM (third group) vs 0 μM), 72.0% in data set [1] (ruthenium red 50 μM (fourth group) vs 0 μM) and 86.7% in data set [1] (ruthenium red 100 μM (fifth group) vs 0 μM).
With TEVPAINTIASAEPTVH [SEQ ID No. 1], the “calcium ion concentration (peak [Ca2+]) in Caco-2 cells” value in data set [2] (setting [3]) is “significantly increased”. For the same molecule, the “fluorescence intensity in Caco-2 cells” value in data set [2] (setting [3]) is recorded as “significantly higher”; in data set [2] (at the 442th second, 0 mM calcium ions (first group), 400 μM peptide), 7,059,148; in data set [2] (at the 442th second, 0.3 mM calcium ions (second group), 400 μM peptide), 9,780,517; in data set [2] (at the 442th second, 0.5 mM calcium ions (third group), 400 μM peptide) it was 9,720,348; in data set [2] (at the 442th second, 1.5 mM calcium ions (fourth group), 400 μM peptide), 10,604,175; in data set [2] (at the 442th second, 3 mM calcium ions (fifth group), 400 μM peptide), 10,986,171. For the same molecule, the “fluorescence intensity in Caco-2 cells” value in data set [2] (at the 442th second, 6 mM calcium ions (sixth group), 400 μM peptide) is on record as 10,912,015.
Turning to “SEQ ID No. 2: peptide of SEQ ID No. 1 with the C-terminal 5 amino acids removed (TEVPAINTIASA)”, in data set [2] (Example 17, FIG. 36, Caco-2 cells), the calcium-absorption promotion ability entry is recorded as “have the ability to promote calcium absorption”.
